# Laboratory results as given in patent US20250228857A1, “BIOSENSOR AND USES THEREOF” (The Johns Hopkins University, priority 2022, published 2025).
# Like-named read-outs stand apart in the source and are kept apart here.
# Key:
# [1] = tested on: CaMKII; conditions: cited from earlier work
# [2] = target: T1, CaMKII (Rattus norvegicus, UniProt P15791); experiment: Pacing-induced CaMKII activity in CaMKAR-expressing neonatal rat ventricular myocytes (NRVMs); assay type: cell-based
# T1 construct: endogenous in cells; host or cells: neonatal rat ventricular myocytes (Sprague-Dawley)
# [3] = cited from earlier work
# [4] = in vivo; cited from earlier work
# [5] = in vivo; cited from earlier work; remark: listed apart in the source
# [6] = tested on: 293T cells; experiment: Cell viability in 293T cells (CellTiter-Glo 2.0); conditions: 12-hour exposure
# [7] = tested on: CaMKII; conditions: HEK293T cells and in vitro by independent commercial laboratory
# [8] = target: T2, CaMKII^T287D (Homo sapiens, UniProt Q13557, T287D); experiment: CaMKII inhibition in 293T cells expressing CaMKAR and CaMKII^T287D (high content imaging); assay type: cell-based; conditions: HEK293T cells, IC50 curves
# T2 construct: expressed in transfected cells; host or cells: HEK293T
# [9] = tested on: C57BL/6J mice; experiment: Novel object recognition test (NORT); assay type: in vivo, mouse; conditions: 75 or 41 mg/kg; single dose 1 hour prior or twice daily for 7 days
# [10] = tested on: NRVMs; experiment: NRVM cell viability after 48 hour compound incubation; assay type: cell-based, rat; conditions: 48-hour exposure
# Text: FIGS. 3A-3H show which drugs in clinical use inhibit CaMKII in cardiac cells. (FIG. 3A) Fluorescence imaging timelapse of CaMKAR expressing neonatal rat ventricular cardiomyocytes (NRVMs) and (FIG. 3B) summary data during 3 Hz field pacing (n=1,065-1,160 cells). R/R0=R normalized to mean R prior to stimulation. Scale bar=50 μm. […] CaMKII inhibition % defined by min-max normalization between untreated and maximally stimulated CaMKAR signal. […] (FIG. 3E) Summary data from D at 60 seconds post stimulation. […] (FIG. 3H) Cell viability after 48 hour compound incubation. All measurements are taken from >3 biological replicates. ns=p>0.05, ****p<0.0001; significance determined via one-way ANOVA and Dunnett's multiple comparisons test (FIGS. 3C,3 E); two-way ANOVA and Tukey's multiple comparisons test (FIG. 3F).
# Rat hippocampal neurons were cultured as previously described (38).
# [11] = tested on: CREM-IbAC-X mice; experiment: Spontaneous atrial fibrillation in CREM-IbAC-X mice; assay type: in vivo, mouse; conditions: 75 mg/kg i.p., 10 minutes after treatment
# Text: (§1) (FIG. 7A) Representative type 1 diabetic mouse tracings immediately after atrial burst pacing. […] (FIG. 7B) Atrial fibrillation (AF) inducibility percentage from mice in FIG. 7A. Number of mice analyzed per group shown in each column: 9/16 vehicle treated mice had AF vs. 2/15 Rux-treated mice. (FIG. 7C) Sequential atrial fibrillation (AF) inducibility in OGT-transgenic mice. […] Number of mice analyzed per group shown in each column (Vehicle=5/5 had AF, Rux=1/5 had AF). […] Statistical comparisons were performed using 2-tailed Fischer's exact test (FIGS. 7B, 7C); two-way ANOVA with Sidak's multiple comparison's test (FIG. 7D); paired Student's T-test (FIG. 7E); *p<0.05, ****p<0.0001.
# Spontaneous AF. 8-months-old CREM-IbAC-X mice were monitored via surface ECG for 15 minutes to establish the baseline for time spent in atrial fibrillation (AF). AF was defined as loss of p-waves and irregularly irregular R-R intervals for >10 seconds. Each mouse was monitored at least twice with more than 24 hours interval between two recordings. After establishing the baseline, the mice were injected with placebo (10% DMSO, 2.5% Tween-20 in saline; i.p. injections) and the 15-minute ECGs were recorded between 10-25 minutes post injection.
# [12] = tested on: OGT-transgenic mice; experiment: Sequential atrial fibrillation inducibility in OGT-transgenic mice; assay type: in vivo, mouse; conditions: 75 mg/kg prior to second pacing
# Text: as §1
# 75 mg/kg dosing was chosen due to previous studies determining this dose to be equivalent to the 20-25 mg dose in humans based on plasma concentration (47-49). In vivo electrophysiology (EP) studies were performed as previously reported (57) in mice anesthetized with isoflurane (2% for induction and 1.5% for maintenance of anesthesia; Isotec 100 Series Isoflurane Vaporizer; Harvard Apparatus). AF was defined as the occurrence of rapid and fragmented atrial electrograms with irregular AV-nodal conduction and ventricular rhythm for at least 1 second. If 1 or more atrial bursts (out of 5) were an AF episode, the mouse was considered to have inducible AF. […]
# [13] = tested on: type 1 diabetic mice; experiment: Atrial fibrillation induction by atrial burst pacing in type 1 diabetic mice; assay type: in vivo, mouse; conditions: 75 mg/kg i.p. single dose 10 minutes prior
# Text: as §1
# Diabetic Mouse Model. Type-1 diabetes (T1D) was induced as previously described (57) in adult male C57BL/6J mice (The Jackson Laboratory, ME, USA) by a single intraperitoneal injection of streptozotocin (STZ)(185 mg/kg, Sigma-Aldrich) dissolved in a citrate buffer (citric acid and sodium citrate, pH 4.0) after a six hour fast. Mice were maintained on normal chow diet (NCD) (7913 irradiated NIH-31 modified 6% mouse/rat diet—15 kg, Envigo, Indianapolis, TN). Mice were considered diabetic if blood glucose level was ≥300 mg/dl via tail vein blood checked with a glucometer—OneTouch Ultra 2 (LifeScan, Zug, Switzerland). […]
# [14] = tested on: C57BL/6J mice; experiment: Barnes maze; assay type: in vivo, mouse; conditions: 150 mg/kg/day
# Method: (FIG. 20B) Latency to escape the Barnes maze during the probe trial (day 6). There was no significant deficit in ruxolitinib (Rux) treated mice over vehicle (Veh). Datapoints represent individual mice. (FIGS. 20C-20E) Latency to escape maze, primary errors, and total errors of mice subjected to Barnes maze during the 4 training trials. Statistical testing shown below each graph with proportion and significance of variance by each parameter. Data shown as mean±SEM. Significance was determined via Student's T-test (FIG. 20B), or two-way ANOVA (FIGS. 20C-20E).
# For the Barnes maze: A brightly lit (1100 lux) Barnes maze with 20 evenly spaced holes and an escape box placed under one of the holes was used (Maze Engineers). During training, each mouse was placed in the center of the maze and allowed to explore the maze for 3 minutes per trial. During the trial, the number of head dips and the latency to find and then enter the escape box were recorded. Mice were given two trials per day for four days. 24 hours following training, mice were given a probe trial, with the number of head dips and latency to find and then enter the escape box recorded.
# [15] = rats; cited from earlier work
# [16] = tested on: C57BL/6J mice; experiment: Y maze spatial recognition memory test; assay type: in vivo, mouse
# [17] = tested on: WT and RyR2^R176Q/WT mice; experiment: ECG heart rate and electrophysiologic parameters in WT and RyR2^R176Q/WT mice
# [18] = target: T3, constitutively active CaMKIIδT287D (Homo sapiens, UniProt Q13557, T287D); experiment: CaMKAR-based high throughput primary screen in K562^CaMKII-CaMKAR cells; assay type: cell-based; conditions: 5 μM per compound, 12 hours
# T3 construct: P2A-mCherry (C); expressed in transfected cells; host or cells: K562 (lentiviral, doxycycline-induced)
# [19] = target: CaMKII (Homo sapiens, UniProt Q13557); assay type: biochemical; conditions: 5 μM drug, 100 μM ATP
# [20] = target: CaMKAR (CaMKII Activity Reporter) (human); experiment: cell-based or functional assay
# [21] = tested on: Purified recombinant CaMKAR
# [22] = long-term ruxolitinib, median exposures 11.1 and 34.4 months
compound,measurement,setting,value
"O=c1c(O)c(-c2ccc(O)c(O)c2)oc2ccccc12 [DiOHF, 3′,4′-dihydroxyflavonol]",IC50,[1]; read-out: published IC50,250 nM
"O=C(Nc1nc2cccc(-c3ccc(CN4CCS(=O)(=O)CC4)cc3)n2n1)C1CC1 [Filgotinib, filgotinib]",inhibition of pacing-induced CaMKII activity,[2]; 0.5 μM and 2 μM pre-treatment,failed to inhibit
"CN([C@@H](Cc1ccc(OS(=O)(=O)c2cccc3cnccc23)cc1)C(=O)N1CCN(c2ccccc2)CC1)S(=O)(=O)c1cccc2cnccc12 [KN-62, 1-[N,O-bis(5-isoquinolinesulfonyl)-N-methyl-L-tyrosyl]-4-phenylpiperazine]",inhibition of autonomously hyperactive CaMKII,[1],fail to inhibit
COc1ccc(S(=O)(=O)N(CCO)c2ccccc2CN(C)CC=Cc2ccc(Cl)cc2)cc1 [KN-93],inhibition of autonomously hyperactive CaMKII,[1],fail to inhibit
CCN1CCN(Cc2ccc(Nc3ncc(F)c(-c4cc(F)c5nc(C)n(C(C)C)c5c4)n3)nc2)CC1 [abemaciclib],Maximum dose used in humans,"[3]; human, in vivo",200 mg BID
same,maximum human plasma concentration,[4],243 nM
same,CNS penetrance,[5],11-16.6%
CCS(=O)(=O)N1CC(CC#N)(n2cc(-c3ncnc4[nH]ccc34)cn2)C1 [baricitinib],Maximum dose used in humans,[3]; FDA-approved,4 mg QD (97)
same,Maximum dose used in humans,[3]; Healthy volunteers,40 mg (98)
same,maximum human plasma concentration,[4],58 nM
same,toxicity compared with AS100397,[6],less toxic
same,CNS penetrance,[5],20% (103)
CC1(COc2ccc3c(c2)ncn3-c2ccc3cccc(N4CCC(N)CC4)c3n2)COC1 [crenolanib],confirmed CaMKII inhibitor after re-test,[7],potent CaMKII inhibitors
same,Maximum dose used in humans,"[3]; human, in vivo",100 mg TID
same,maximum human plasma concentration,[4],478 nM
same,inhibition of pacing-induced CaMKII activity at maximal human plasma concentration,"[2]; 3 Hz pacing, ruxolitinib 1.51 μM, crenolanib 478 nM, abemaciclib 243 nM, baricitinib 58 nM, silmitasertib 3.42 μM",sustained inhibition
same,toxicity compared with AS100397,[6],all drugs except crenolanib were less toxic
same,potency compared with AS100397,[8],more potent than AS100397
N#CC[C@H](C1CCCC1)n1cc(-c2ncnc3[nH]ccc23)cn1 [ruxolitinib],"novel object recognition, percent time spent with the novel object",[9],Neither single dose (1 hour prior) nor multiple doses (twice daily for 7 days) of ruxolitinib (75 or 41 mg/kg) caused significant differences in novel object recognition
same,Maximum dose used in humans,[3]; FDA-approved,25 mg BID (96)
same,Maximum dose used in humans,[3]; Healthy volunteers,200 mg QD (76)
same,well-tolerated dose,"[3]; healthy volunteers, short-term dosing",up to 200 mg
same,patients discontinuing treatment due to anemia,[3]; [22],< 2.6%
same,patients discontinuing treatment due to thrombocytopenia,[3]; [22],< 3.6%
same,cognitive deficits in patients,[3]; prescribed for over a decade,without reported overt cognitive deficits
same,well tolerated concentration,[10],up to 100 μM
same,maximum human plasma concentration,[4],1510 nM
same,toxicity compared with AS100397,[6],less toxic
same,CNS penetrance,[5],3.5% (64)
same,percent time in AF,[11],33.63%
same,mice with AF / mice analyzed,[12],1/5
same,mice with AF / mice analyzed,[13],2/15
same,"latency, primary errors, and total errors during training trials",[14],no significant effect
same,maze solving latency at study endpoint (probe trial),[14]; day 6,no difference
same,plasma concentration over brain concentration,[15],29 fold
same,decreased preference for the novel arm,[16]; higher dose single dosing and both multiple dosing cohorts,not seen
same,preference for the novel arm,"[16]; single dosing, lower dose (41 mg/kg)",decreased preference for the novel arm
same,PR,"[17]; RyR^R176Q/WT mice, Baseline",39.5 ± 1 ms
same,QTc,"[17]; RyR^R176Q/WT mice, Baseline",36.5 ± 5 ms
same,PR,"[17]; RyR^R176Q/WT mice, EPI",42.2 ± 4 ms
same,QTc,"[17]; RyR^R176Q/WT mice, EPI",49.5 ± 4 ms
same,PR,"[17]; RyR^R176Q/WT mice, ISO",43.1 ± 3 ms
same,QTc,"[17]; RyR^R176Q/WT mice, ISO",51.6 ± 5 ms
same,PR,"[17]; WT mice, Baseline",43.4 ± 4 ms
same,QTc,"[17]; WT mice, Baseline",48.6 ± 6 ms
same,PR,"[17]; WT mice, EPI",45.9 ± 2.7 ms
same,QTc,"[17]; WT mice, EPI",55.7 ± 8 ms
same,PR,"[17]; WT mice, ISO",43.8 ± 4 ms
same,QTc,"[17]; WT mice, ISO",49.2 ± 4 ms
O=C(O)c1ccc2c(c1)nc(Nc1cccc(Cl)c1)c1ccncc12 [silmitasertib],Maximum dose used in humans,"[3]; human, in vivo",1000 mg BID
same,maximum human plasma concentration,[4],3420 nM
CN[C@@H]1C[C@H]2O[C@@](C)([C@@H]1OC)n1c3ccccc3c3c4c(c5c6ccccc6n2c5c31)C(=O)NC4 [staurosporine],CaMKAR signal / hit in primary screen,[18],returned
same,inhibition in secondary screen (CaMKAR in vitro assay),[19],returned
Constitutively active CaMKIIδC (T287D mutation) (from UniProt Q13557 1-499),"Maximal amplitude change of CaMKAR signal (R/R0), HEK293T cells, ionomycin",[20],227%
Purified CaMKIIδc,"dynamic range of CaMKAR ratio in vitro, plate reader, Ca2+/CaM and ATP",[21],CaMKAR displays a larger dynamic range in vitro (264±2.1%)
same,spectral changes of purified CaMKAR in vitro,[21],Recombinant CaMKAR is fully functional and exhibits appropriate spectral changes upon incubation with purified CaMKII
